Assay results as given in PubChem BioAssay AID1845196 (Molecular Pharmacology Branch, DTP, NCI, 2023).
pIC50: −log10 of the molar value. “And” between values parts separate entries of the source, which are not always exact repeats. Identical values can stand only once.

System: 292921-168-R tumor spheroid viability
Assay: Anticancer human tumor 292921-168-R patient-derived pancreatic carcinoma cell line growth inhibition
Conditions: spheroids with HUVEC and MSC; for viability, T/C: stronger effect = lower value
Description: Multicellular complex tumor spheroid response to DNA repair inhibitors in combination with DNA-damaging drugs
This study explores the anticancer activities of DNA-damaging drugs and inhibitors of DNA damage repair, both as single agents and in combinations. Complex tumor spheroids comprised of malignant cells, endothelial cells and mesenchymal stem cells served as an in vitro model for human solid tumors. This model system incorporates physiologically relevant features and patient-derived or established malignant cell lines with clinically relevant genetic alterations from many tumor types. Twenty-six patient-derived or established malignant cell lines were evaluated representing sarcoma, melanoma, small cell lung cancer (SCLC), non-small cell lung cancer (NSCLC), as well as bladder, ovarian and pancreatic cancers. The concentration ranges selected for each drug and investigational agent were based upon clinically achievable concentrations if the clinical Cmax of the agent was known.
Compounds. The drugs and compounds olaparib (NSC753686), talazoparib (NSC767125), berzosertib (NSC777718), elimusertib (NSC800525), nedisertib (NSC802822), VX-984 (NSC792969), AZD-1390 (NSC803789), temozolomide (NSC362856), topotecan (NSC609699), trabectedin (NSC813783), staurosporine (NSC755774), and gemcitabine (NSC613327) were obtained from the National Cancer Institute (NCI) Developmental Therapeutics Program Chemical Repository. The FDA-approved anticancer drug set is available from the Developmental Therapeutics Program at https://dtp.cancer.gov/organization/dscb/obtaining/available_plates.htm. […] The stock solutions were prepared in dimethyl sulfoxide (DMSO, Sigma-Aldrich, St. Louis, MO, cat. D2650) at 400-fold the tested concentration and stored at -70 degrees C. Prior to their use, the stock solutions were diluted in fresh medium and the final DMSO concentration in the assay was 0.25% (v/v). All drugs and investigational agents were tested over a range starting from a high concentration at or near the clinical Cmax and decreasing in half-log increments. If the clinical Cmax for an agent had not been determined, the highest concentration tested was 10 microM.
Cell Lines. The patient-derived cancer cell (PDC) lines: 156681-154-R-J1-PDC, 283228-195-R-J1-PDC, 287954-098-R-J1-PDC, 292921-168-R-J2-PDC, 349418-098-R-PDC, 425362-245-T-J1-PDC, 556581-035-R-J1-PDC, and BL0293-F563-PDC were received from the NCI Patient-Derived Models Repository (PDMR, https://pdmr.cancer.gov). The established cell lines HS-SY-2 (RRID:CVCL_8719), MPNST, and SYO-1 (RRID:CVCL_7146) were obtained from the Sloan Kettering Institute. The alveolar soft parts sarcoma cell line ASPS-1 (RRID:CVCL_S738) was established at the NCI and grown from internal seed stocks. The following established cell lines were purchased from the American Type Culture Collection (ATCC, Manassas, VA): G-401 (ATCC, cat. CRL-1441, RRID:CVCL_0270), SW982 (ATCC, cat. HTB-93, RRID:CVCL_1734), VA-ES-BJ (ATCC, cat. CRL-2138, RRID:CVCL_1785), NCI-H719 (ATCC, cat. CRL-5837, RRID:CVCL_1582), NCI-H196 (ATCC, cat. CRL-5823, RRID:CVCL_1509), NCI-H841 (ATCC, cat. CRL-5845, RRID:CVCL_1595), NCI-H1618 (ATCC, cat. CRL-5879, RRID:CVCL_1480), NCI-H1876 (ATCC, cat. CRL-5902, RRID:CVCL_1503), DMS 114 (ATCC, cat. CRL-2066; RRID:CVCL_1174), NCI-H211 (ATCC, cat. CRL-5824; RRID:CVCL_1529), and SW 1271 (ATCC, cat. CRL-2177, RRID:CVCL_1716). The small cell lung cancer cell line COR-L88 was purchased from Sigma-Aldrich (cat. 92031917-1VL, RRID:CVCL_1141). The non-small cell lung cancer cell lines NCI-H226 (RRID:CVCL_1544) and NCI-H322M (RRID:CVCL_1557) were established at the NCI and grown from internal seed stocks. Pooled donor human umbilical vein endothelial cells (HUVEC, Lonza, cat. CC-2519) and human mesenchymal stem cells (hMSC, Lonza, cat. PT-2501) were purchased from Lonza (Walkersville, MD).
Cell Culture. All cells were maintained in an incubator at 37 degrees C and 5% CO2 with 95% humidity. […]

[1] = curve of first compound, second compound 1 µM
[2] = curve of first compound, second compound 3.16 µM
[3] = curve of first compound, second compound 10 µM
[4] = curve of first compound, second compound 31.6 µM
[5] = curve of first compound, second compound 100 µM
[6] = second compound 1 µM, first compound 0.0316 µM
[7] = second compound 1 µM, first compound 0.1 µM
[8] = second compound 1 µM, first compound 0.316 µM
[9] = second compound 1 µM, first compound 1 µM
[10] = second compound 1 µM, first compound 3.16 µM
[11] = second compound 1 µM, first compound 10 µM
[12] = second compound 3.16 µM, first compound 0.0316 µM
[13] = second compound 3.16 µM, first compound 0.1 µM
[14] = second compound 3.16 µM, first compound 0.316 µM
[15] = second compound 3.16 µM, first compound 1 µM
[16] = second compound 3.16 µM, first compound 3.16 µM
[17] = second compound 3.16 µM, first compound 10 µM
[18] = second compound 10 µM, first compound 0.0316 µM
[19] = second compound 10 µM, first compound 0.1 µM
[20] = second compound 10 µM, first compound 0.316 µM
[21] = second compound 10 µM, first compound 1 µM
[22] = second compound 10 µM, first compound 3.16 µM
[23] = second compound 10 µM, first compound 10 µM
[24] = second compound 31.6 µM, first compound 0.0316 µM
[25] = second compound 31.6 µM, first compound 0.1 µM
[26] = second compound 31.6 µM, first compound 0.316 µM
[27] = second compound 31.6 µM, first compound 1 µM
[28] = second compound 31.6 µM, first compound 3.16 µM
[29] = second compound 31.6 µM, first compound 10 µM
[30] = second compound 100 µM, first compound 0.0316 µM
[31] = second compound 100 µM, first compound 0.1 µM
[32] = second compound 100 µM, first compound 0.316 µM
[33] = second compound 100 µM, first compound 1 µM
[34] = second compound 100 µM, first compound 3.16 µM
[35] = second compound 100 µM, first compound 10 µM
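Further: spheroids exposed to compounds for 7 days.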

## CC1COCCN1c1cc(-c2ccnn2C)c2ccnc(-c3ccn[nH]3)c2n1 (configuration not stated) + Cn1nnc2c(C(N)=O)ncn2c1=O
[1]
  pIC50: > 7.50
[2]
  pIC50: > 7.50
[3]
  pIC50: > 7.50
[4]
  pIC50: > 7.50
[5]
  pIC50: > 7.50
[6]
  viability, T/C: 29%
[7]
  viability, T/C: 15.5%
[8]
  viability, T/C: 13%
[9]
  viability, T/C: 13.1%
[10]
  viability, T/C: 14.6%
[11]
  viability, T/C: 15.8%
[12]
  viability, T/C: 30.4%
[13]
  viability, T/C: 17.8%
[14]
  viability, T/C: 14.5%
[15]
  viability, T/C: 13%
[16]
  viability, T/C: 14.2%
[17]
  viability, T/C: 15.8%
[18]
  viability, T/C: 27.9%
[19]
  viability, T/C: 16.2%
[20]
  viability, T/C: 12.1%
[21]
  viability, T/C: 12.8%
[22]
  viability, T/C: 15.2%
[23]
  viability, T/C: 15.6%
[24]
  viability, T/C: 24.3%
[25]
  viability, T/C: 17.9%
[26]
  viability, T/C: 12.5%
[27]
  viability, T/C: 12.8%
[28]
  viability, T/C: 13.9%
[29]
  viability, T/C: 15.3%
[30]
  viability, T/C: 16.9%
[31]
  viability, T/C: 11.8%
[32]
  viability, T/C: 9.95%
[33]
  viability, T/C: 11.3%
[34]
  viability, T/C: 13%
[35]
  viability, T/C: 14.7%

## COc1cc2c(cc1O)CCNC21CSC2c3c(OC(C)=O)c(C)c4c(c3C(COC1=O)N1C(O)C3Cc5cc(C)c(OC)c(O)c5C(C21)N3C)OCO4 (configuration not stated)
Compound 94.9 pM
  viability, T/C: 101% [middle of 10 runs]
Compound 0.0003 µM
  viability, T/C: 41.8% [middle of 10 runs]
Compound 0.000949 µM
  viability, T/C: 3.57% [middle of 10 runs]
Compound 0.003 µM
  viability, T/C: 0.16% [middle of 5 runs]
Compound alone, run of 10/25/2019
  IC50: 0.259 nM [middle of 10 runs]

## CNCc1ccc(-c2cc(-c3nc(-c4ccc(S(=O)(=O)C(C)C)cc4)cnc3N)on2)cc1
Compound 0.00949 µM
  viability, T/C: 101% and 106% and 104%
Compound 0.03 µM
  viability, T/C: 101% and 94.1% and 95.1%
Compound 0.0949 µM
  viability, T/C: 79.2% and 80% and 91.3%
Compound 0.3 µM
  viability, T/C: 49.7% and 37.8% and 38.7%
Compound 0.949 µM
  viability, T/C: 26.5% and 25.3% and 20.8%
Compound 3 µM
  viability, T/C: 11.9% (2×) and 13.2%
Curve of compound
  pIC50: 6.51 and 6.65 and 6.63

## CC(C)n1c(=O)n(C)c2cnc3cc(F)c(-c4ccc(OCCCN5CCCCC5)nc4)cc3c21 + Cn1nnc2c(C(N)=O)ncn2c1=O
[1]
  pIC50: 5.33
[2]
  pIC50: 5.27
[3]
  pIC50: 5.27
[4]
  pIC50: 5.33
[5]
  pIC50: 5.37
[6]
  viability, T/C: 96.5%
[7]
  viability, T/C: 94.2%
[8]
  viability, T/C: 89.6%
[9]
  viability, T/C: 79.6%
[10]
  viability, T/C: 63.3%
[11]
  viability, T/C: 26%
[12]
  viability, T/C: 99.2%
[13]
  viability, T/C: 94.8%
[14]
  viability, T/C: 85.6%
[15]
  viability, T/C: 86.8%
[16]
  viability, T/C: 73.8%
[17]
  viability, T/C: 25.1%
[18]
  viability, T/C: 90.4%
[19]
  viability, T/C: 96.2%
[20]
  viability, T/C: 89.5%
[21]
  viability, T/C: 84.2%
[22]
  viability, T/C: 69.8%
[23]
  viability, T/C: 27.4%
[24]
  viability, T/C: 89.9%
[25]
  viability, T/C: 91.2%
[26]
  viability, T/C: 83.6%
[27]
  viability, T/C: 77.9%
[28]
  viability, T/C: 62.8%
[29]
  viability, T/C: 25.9%
[30]
  viability, T/C: 72.2%
[31]
  viability, T/C: 74.1%
[32]
  viability, T/C: 79.6%
[33]
  viability, T/C: 77.2%
[34]
  viability, T/C: 57.9%
[35]
  viability, T/C: 28.1%
